Laboratory results from patent US20210395239A1 (Hoffmann-La Roche Inc., priority 2018, published 2021).

The molecules below were run against T1, human TLR7 (Homo sapiens, UniProt Q9NYK1) (assay: HEK293-Blue-hTLR-7 cells assay (SEAP reporter, R848 stimulation)). Settings: HEK293-Blue-hTLR7 cells, R848, 20 hrs; read-out: HEK/hTLR7 IC50.
T1 construct: host or cells: HEK293 (HEK-Blue hTLR7)
T1 sequence (Q9NYK1 27-1049): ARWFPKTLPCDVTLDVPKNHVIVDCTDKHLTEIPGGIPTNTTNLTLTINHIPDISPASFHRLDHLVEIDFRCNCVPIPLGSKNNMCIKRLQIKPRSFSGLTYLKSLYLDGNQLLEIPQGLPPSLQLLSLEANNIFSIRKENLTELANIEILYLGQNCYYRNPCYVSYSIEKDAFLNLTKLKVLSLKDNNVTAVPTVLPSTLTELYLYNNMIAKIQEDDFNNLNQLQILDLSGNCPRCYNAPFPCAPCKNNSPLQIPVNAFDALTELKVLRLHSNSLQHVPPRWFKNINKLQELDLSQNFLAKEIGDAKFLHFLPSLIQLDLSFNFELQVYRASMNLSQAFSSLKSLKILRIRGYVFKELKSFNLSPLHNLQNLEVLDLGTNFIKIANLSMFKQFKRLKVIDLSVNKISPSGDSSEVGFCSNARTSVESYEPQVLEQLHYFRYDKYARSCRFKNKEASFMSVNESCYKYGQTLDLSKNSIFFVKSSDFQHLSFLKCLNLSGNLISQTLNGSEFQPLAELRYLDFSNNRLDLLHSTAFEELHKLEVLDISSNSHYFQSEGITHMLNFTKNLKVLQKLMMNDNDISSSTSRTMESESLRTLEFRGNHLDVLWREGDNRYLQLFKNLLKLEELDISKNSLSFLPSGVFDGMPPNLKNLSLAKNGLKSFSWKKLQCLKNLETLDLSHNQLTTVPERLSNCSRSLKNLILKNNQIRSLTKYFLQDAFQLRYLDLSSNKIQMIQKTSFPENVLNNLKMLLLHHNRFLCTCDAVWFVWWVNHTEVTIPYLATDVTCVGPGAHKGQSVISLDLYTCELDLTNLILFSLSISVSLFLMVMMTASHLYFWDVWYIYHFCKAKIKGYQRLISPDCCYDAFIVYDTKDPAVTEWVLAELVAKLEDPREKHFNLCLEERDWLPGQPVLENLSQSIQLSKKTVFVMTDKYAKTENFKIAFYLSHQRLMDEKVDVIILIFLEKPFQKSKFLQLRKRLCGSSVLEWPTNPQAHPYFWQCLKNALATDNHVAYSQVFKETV
Format: cell-based
Outline: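 HEK293-Blue-hTLR7 cells (NF-κB/AP-1-driven SEAP reporter) were stimulated with R848 alongside serially diluted compound at 1% final DMSO for 20 h at 37 °C. Supernatant SEAP was then developed with QUANTI-Blue for 2 h at 37 °C and absorbance read at 620–655 nm; antagonism is measured as reduced reporter signal.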

IC50 | SMILES
50 nM | C[C@@H]1CN(c2ccc(C#N)c3ncccc23)C[C@H](CN2CCN(c3ccnc(N4CC(N)C4)n3)CC2)O1 [Example 23, 5-[(2S,6R)-2-[[4-[2-(3-aminoazetidin-1-yl)pyrimidin-4-yl]piperazin-1-yl]methyl]-6-methyl-morpholin-4-yl]quinoline-8-carbonitrile]
38 nM | C[C@@H]1CN(c2ccc(C#N)c3ncccc23)C[C@H](CN2CCN(c3ccnc(N[C@H]4CNC[C@H]4F)n3)CC2)O1 [Example 24, 5-[(2S,6R)-2-[[4-[2-[[(3S,4R)-4-fluoropyrrolidin-3-yl]amino]pyrimidin-4-yl]piperazin-1-yl]methyl]-6-methyl-morpholin-4-yl]quinoline-8-carbonitrile]
26 nM | C[C@@H]1CN(c2ccc(C#N)c3ncccc23)C[C@H](CN2CCN(c3ccnc(N4CCNCC(O)C4)n3)CC2)O1 (stereo partly drawn) [Example 25, 5-[(2S,6R)-2-[[4-[2-(6-hydroxy-1,4-diazepan-1-yl)pyrimidin-4-yl]piperazin-1-yl]methyl]-6-methyl-morpholin-4-yl]quinoline-8-carbonitrile]
8 nM | CO[C@H]1CN(c2nccc(N3CCN(C[C@H]4CN(c5ccc(C#N)c6ncccc56)C[C@@H](C)O4)CC3)n2)C[C@@H]1N [Example 26, 5-[(2S,6R)-2-[[4-[2-trans-(3-amino-4-methoxy-pyrrolidin-1-yl)pyrimidin-4-yl]piperazin-1-yl]methyl]-6-methyl-morpholin-4-yl]quinoline-8-carbonitrile]
15 nM | C[C@@H]1CN(c2ccc(C#N)c3ncccc23)C[C@H](CN2CCN(c3ccnc(N4CCC(N)CC4)n3)CC2)O1 [Example 27, 5-[(2S,6R)-2-[[4-[2-(4-amino-1-piperidyl)pyrimidin-4-yl]piperazin-1-yl]methyl]-6-methyl-morpholin-4-yl]quinoline-8-carbonitrile]
11 nM | C[C@@H]1CN(c2ccc(C#N)c3ncccc23)C[C@H](CN2CCN(c3ccnc(NC4CNC4)n3)CC2)O1 [Example 28, 5-[(2S,6R)-2-[[4-[2-(azetidin-3-ylamino)pyrimidin-4-yl]piperazin-1-yl]methyl]-6-methyl-morpholin-4-yl]quinoline-8-carbonitrile]
16 nM | C[C@@H]1CN(c2ccc(C#N)c3ncccc23)C[C@H](CN2CCN(c3ccnc(N4CCN[C@@H](CO)C4)n3)CC2)O1 [Example 29, 5-[(2S,6R)-2-[[4-[2-[(3R)-3-(hydroxymethyl)piperazin-1-yl]pyrimidin-4-yl]piperazin-1-yl]methyl]-6-methyl-morpholin-4-yl]quinoline-8-carbonitrile]
16 nM | C[C@@H]1CN(c2ccc(C#N)c3ncccc23)C[C@H](CN2CCN(c3ccnc(OCCN(C)C)n3)CC2)O1 [Example 30, 5-[(2S,6R)-2-[[4-[2-[2-(dimethylamino)ethoxy]pyrimidin-4-yl]piperazin-1-yl]methyl]-6-methyl-morpholin-4-yl]quinoline-8-carbonitrile]
18 nM | C[C@@H]1CN(c2ccc(C#N)c3ncccc23)C[C@H](CN2CCN(c3ccnc(N4CCN(C(=O)[C@@H]5CCCN5)CC4)n3)CC2)O1 [Example 31, 5-[(2R,6S)-2-methyl-6-[[4-[2-[4-[(2S)-pyrrolidine-2-carbonyl]piperazin-1-yl]pyrimidin-4-yl]piperazin-1-yl]methyl]morpholin-4-yl]quinoline-8-carbonitrile]
6 nM | C[C@@H]1CN(c2ccc(C#N)c3ncccc23)C[C@H](CN2CCN(c3ccnc(N4CCN(C(=O)CN(C)C)CC4)n3)CC2)O1 [Example 32, 5-[(2S,6R)-2-[[4-[2-[4-[2-(dimethylamino)acetyl]piperazin-1-yl]pyrimidin-4-yl]piperazin-1-yl]methyl]-6-methyl-morpholin-4-yl]quinoline-8-carbonitrile]
24 nM | C[C@@H]1CN(c2ccc(C#N)c3ncccc23)C[C@H](CN2CCN(c3cccc(N4CCN(C)CC4)n3)CC2)O1 [Example 33, 5-[(2R,6S)-2-methyl-6-[[4-[6-(4-methylpiperazin-1-yl)-2-pyridyl]piperazin-1-yl]methyl]morpholin-4-yl]quinoline-8-carbonitrile]
27 nM | C[C@@H]1CN(c2ccc(C#N)c3ncccc23)C[C@H](CN2CCN(c3ccnc(N4CCN(C(=O)C5CCN5)CC4)n3)CC2)O1 (stereo partly drawn) [Example 34, 5-[(2S,6R)-2-[[4-[2-[4-(azetidine-2-carbonyl)piperazin-1-yl]pyrimidin-4-yl]piperazin-1-yl]methyl]-6-methyl-morpholin-4-yl]quinoline-8-carbonitrile]
65 nM | C[C@@H]1CN(c2ccc(C#N)c3ncccc23)C[C@H](CN2CCN(c3cccc(N[C@H]4CNC[C@@H]4F)n3)CC2)O1 [Example 35, 5-[(2S,6R)-2-[[4-[6-[[(3S,4S)-4-fluoropyrrolidin-3-yl]amino]-2-pyridyl]piperazin-1-yl]methyl]-6-methyl-morpholin-4-yl]quinoline-8-carbonitrile]
28 nM | C[C@@H]1CN(c2ccc(C#N)c3ncccc23)C[C@H](CN2CCN(c3cccc(N4CCC(N)CC4)n3)CC2)O1 [Example 36, 5-[(2S,6R)-2-[[4-[6-(4-amino-1-piperidyl)-2-pyridyl]piperazin-1-yl]methyl]-6-methyl-morpholin-4-yl]quinoline-8-carbonitrile]
70 nM | C[C@@H]1CN(c2ccc(C#N)c3ncccc23)C[C@H](CN2CCN(c3cccc(N[C@H]4CNC[C@H]4F)n3)CC2)O1 [Example 37, 5-[(2S,6R)-2-[[4-[6-[[(3S,4R)-4-fluoropyrrolidin-3-yl]amino]-2-pyridyl]piperazin-1-yl]methyl]-6-methyl-morpholin-4-yl]quinoline-8-carbonitrile]
16 nM | C[C@@H]1CN(c2ccc(C#N)c3ncccc23)C[C@H](CN2CCN(c3cccc(NC4CNC4)n3)CC2)O1 [Example 38]
35 nM | C[C@@H]1CN(c2ccc(C#N)c3ncccc23)C[C@H](CN2CCN(c3cccc(N4CC(N)C(F)C4)n3)CC2)O1 (stereo partly drawn) [Example 40, 5-[(2S,6R)-2-[[4-[6-(3-amino-4-fluoro-pyrrolidin-1-yl)-2-pyridyl]piperazin-1-yl]methyl]-6-methyl-morpholin-4-yl]quinoline-8-carbonitrile]
81 nM | C[C@@H]1CN(c2ccc(C#N)c3ncccc23)C[C@H](CN2CCN(c3cccc(N4CCNCC(O)C4)n3)CC2)O1 (stereo partly drawn) [Example 41, 5-[(2S,6R)-2-[[4-[6-(6-hydroxy-1,4-diazepan-1-yl)-2-pyridyl]piperazin-1-yl]methyl]-6-methyl-morpholin-4-yl]quinoline-8-carbonitrile]
23 nM | CO[C@H]1CN(c2cccc(N3CCN(C[C@H]4CN(c5ccc(C#N)c6ncccc56)C[C@@H](C)O4)CC3)n2)C[C@H]1N [Example 42, 5-[(2S,6R)-2-[[4-[6-[(3R,4S)-3-amino-4-methoxy-pyrrolidin-1-yl]-2-pyridyl]piperazin-1-yl]methyl]-6-methyl-morpholin-4-yl]quinoline-8-carbonitrile]
22 nM | COC1CN(c2ccc(N3CCN(C[C@H]4CN(c5ccc(C#N)c6ncccc56)C[C@@H](C)O4)CC3)cn2)CC1N (stereo partly drawn) [Example 43, 5-[(2S,6R)-2-[[4-[6-(3-amino-4-methoxy-pyrrolidin-1-yl)-3-pyridyl]piperazin-1-yl]methyl]-6-methyl-morpholin-4-yl]quinoline-8-carbonitrile]
